Patent publication US20210106703A1, “RADIOIMMUNOCONJUGATES IN COMBINATION WITH OTHER DRUGS AS TREATMENT AGAINST NHL” (Nordic Nanovector ASA, priority 2017, published 2021)
Like-named read-outs stand apart in the source and are kept apart here.

Tests used:
Type in all cases: cell-based, human
[1] = system: U-2932 cells; test: Real Time Glo viability screen and validation, Betalutin with PARP or cell cycle kinase inhibitors (Examples 4, 7); conditions: U-2932, validation screen, 0-1280 nM
[2] = system: U2932 cells; test: Real Time Glo viability assay, Betalutin and cell cycle inhibitors (Example 2); conditions: for viability at 0.1 µM / viability at 1 µM: Homo sapiens, read-out: Growth inhibition (signal treated/control; 1 = no change); for viability at 0.1 µM: U2932, U2932, drug 100 nM; for viability at 1 µM: U2932, U2932, drug 1 μM
Description: (§1) Cells were split twice a week 1:3-1:5 depending on cell density. […] Real Time Glo was purchased from Promega. 384 well plates were purchased from Greiner Bio-One.
(§2) Cells were treated for 18-20 h with Betalutin at a final concentration of 1 μg/ml and 2 μg/ml in 6-well cell culture plates with shaking. After treatment, PBS was added to the cells, and the cells pelleted. Cells were first resuspended in 1 ml PBS, then washed twice in PBS and finally diluted in growth medium at the desired concentration. All cell lines were treated at a cell concentration of 2.5*10^6 cells/ml.
(§3) Regardless of cell number the culturing volume was 25 μl. For Real Time Glo, the Cell Viability Substrate and NanoLuc® Enzyme were diluted 1:500 in growth medium, and 25 μL of diluted reagents added to each well. All reagents were equilibrated to 37° C. Cells were incubated with the reaction mix for 1 h at 37° C. before the first measurement of luminescence. Measurements were repeated as often as required within 72 h after adding the reagents. Digitonin was added to cells at 200 μg/ml to record background luminescence of dead cells. A Tecan SPARK 10M plate reader was used to measure luminescence, with an integration time set to 1 sec.
(§4) Growth inhibition was calculated by dividing the luminescence signal of the treated cells by the luminescence signal of the control cells for each day of measurement after start of treatment [Table 1].
(§5) To evaluate effects of the drugs alone [(−)Betalutin] and their combination with Betalutin [(+)Betalutin], we calculated the Z-score for each sample (ZdrugX=1-(+)BetalutindrugX/(−)BetalutindrugX), where (+)BetalutindrugX and (−) BetalutindrugX are the measured luminescence intensity values for drug X in presence and absence of Betalutin, respectively. The calculation of Z-score values separately for each plate enabled comparison of results across plates, despite variations between the plates in overall signal intensity.

[3] = system: RIVA cells; test: as above; conditions: RIVA; for viability at 0.1 µM / viability at 1 µM: Homo sapiens, read-out: Growth inhibition (signal treated/control; 1 = no change)
Description: as §1, §2, §3, §4, §5

[4] = system: Granta 519 cells; test: Alamar Blue cytotoxicity study; conditions: Homo sapiens; Granta 519, 72 h incubation after seeding; read-out: IC50
Description: (§6) Cells were treated with either Humalutin, olaparib or a combination of both and seeded into 96 well-plates. At each time point after treatment, cells were incubated with Alamar Blue (Thermo Fisher, DALL1100) for 4 hours and fluorescence measurements were performed using a multiplate reader Fluoroskan ascent FL to assess cell proliferation and viability. All experiments were done in duplicates using 2 samples in each experiment. Data were normalized to the untreated controls.
(§7) Cells were incubated with 0.25, 0.5, 1, 2.5 or 5 μg/ml of Humalutin in cell culture flasks and incubated at 37° C./5% CO2. After 18-20 hours cells were washed and resuspended in fresh medium. Cell bound activity after washing was measured using a calibrated gamma detector (Cobra II auto-gamma detector, Packard Instrument Company, Meriden, Conn., USA). Cell concentration and viability was also measured after washing using Guava ViaCount Cell Dispersal Reagent for Flow Cytometry (Merck GaA, Darmstadt, Germany) and measured in a Guava EasyCyte 12HT (Merck KGaA, Darmstadt, Germany) to determine how well the cells survived the incubation. Cells were seeded in 96 well plates.
(§8) Cells were seeded in 96 well plates pre-coated with from 1 to 100 μM olaparib in 0.2 ml medium and incubated at 37° C./5% CO2 for 72 hours before the cytotoxic effect was measured using alamar blue cell viability assay.
(§9) Cells were incubated with either 0, 0.5 μg/ml or 1 μg/ml Humalutin and the same procedure as described before for treatment with humalutin alone and olaparib alone was followed. Concentrations of olaparib used were between 1 and 100 μM.
(§10) The Chou-Talalay model was used for synergy calculations using the Compusyn software. R (goodness of fit) was calculated for the individual treatments and should be over 0.90 in in vitro culture experiments in order to use the calculated combination index (CI). The CI is an indication of synergy: 0-0.9 is considered synergy. Synergysm grading was used as described in WO2006004917A2. […]
as §7, with “viability were” for “viability was”, “plates. Alamar blue viability measurements were performed 120 h after seeding.” for “plates.”

[5] = system: DOHH2 cells; test: Alamar Blue cytotoxicity study; conditions: Homo sapiens, DOHH-2; DOHH2, 72 h incubation after seeding; read-out: IC50
Description: as §6, §7, §8, §9, §10
as §7, with “viability were” for “viability was”, “plates. Alamar blue viability measurements were performed 120 h after seeding.” for “plates.”

Compound | viability at 0.1 µM ([2]; (+)Betalutin, Dy3) [%] | viability at 0.1 µM ([2]; (+)Betalutin, Dy4) [%] | viability at 0.1 µM ([2]; (+)Betalutin, Dy5) [%] | viability at 0.1 µM ([2]; (+)Betalutin, Dy6) [%] | viability at 0.1 µM ([2]; (−)Betalutin, Dy3) [%] | viability at 0.1 µM ([2]; (−)Betalutin, Dy4) [%] | viability at 0.1 µM ([2]; (−)Betalutin, Dy5) [%] | viability at 0.1 µM ([2]; (−)Betalutin, Dy6) [%] | viability at 1 µM ([2]; (+)Betalutin, Dy3) [%] | viability at 1 µM ([2]; (+)Betalutin, Dy4) [%] | viability at 1 µM ([2]; (+)Betalutin, Dy5) [%] | viability at 1 µM ([2]; (+)Betalutin, Dy6) [%] | viability at 1 µM ([2]; (−)Betalutin, Dy3) [%] | viability at 1 µM ([2]; (−)Betalutin, Dy4) [%] | viability at 1 µM ([2]; (−)Betalutin, Dy5) [%] | viability at 1 µM ([2]; (−)Betalutin, Dy6) [%] | viability at 0.1 µM ([3]; drug 100 nM, +Betalutin, Dy3) [%] | viability at 0.1 µM ([3]; drug 100 nM, +Betalutin, Dy4) [%] | viability at 0.1 µM ([3]; drug 100 nM, +Betalutin, Dy5) [%] | viability at 0.1 µM ([3]; drug 100 nM, +Betalutin, Dy6) [%] | also measured
Nc1nc(Nc2ccc(S(N)(=O)=O)cc2)nn1C(=O)c1c(F)cccc1F [JNJ-7706621] | 83 | 82 | 73 | 72 | 90 | 91 | 107 | 116 | 39 | 26 | 16 | 11 | 53 | 36 | 25 | 20 | 13 | 8 | 4 | 4 | Effect of monotreatment on proliferation [1]: not evident at concentrations below 160 nM; Synergy for the combination with Betalutin ([2]; U2932, drug 100 nM): Bliss; viability at 0.1 µM ([3]; drug 100 nM, −Betalutin, Dy3): 89%; viability at 0.1 µM ([3]; drug 100 nM, −Betalutin, Dy4): 82%; viability at 0.1 µM ([3]; drug 100 nM, −Betalutin, Dy5): 99%; viability at 0.1 µM ([3]; drug 100 nM, −Betalutin, Dy6): 89%; viability at 1 µM ([3]; drug 1 μM, +Betalutin, Dy3): 29%; viability at 1 µM ([3]; drug 1 μM, +Betalutin, Dy4): 13%; viability at 1 µM ([3]; drug 1 μM, +Betalutin, Dy5): 4%; viability at 1 µM ([3]; drug 1 μM, +Betalutin, Dy6): 3%; viability at 1 µM ([3]; drug 1 μM, −Betalutin, Dy3): 50%; viability at 1 µM ([3]; drug 1 μM, −Betalutin, Dy4): 31%; viability at 1 µM ([3]; drug 1 μM, −Betalutin, Dy5): 17%; viability at 1 µM ([3]; drug 1 μM, −Betalutin, Dy6): 14%; Synergy for the combination with Betalutin ([3]; drug 100 nM): Bliss + Z-score; Synergy for the combination with Betalutin ([3]; drug 1 μM): Z-score
C=CCn1c(=O)c2cnc(Nc3ccc(N4CCN(C)CC4)cc3)nc2n1-c1cccc(C(C)(C)O)n1 [MK-1775] | 120 | 95 | 85 | 71 | 100 | 90 | 92 | 103 | 104 | 94 | 89 | 80 | 86 | 89 | 96 | 115 | 49 | 38 | 24 | 23 | viability at 0.1 µM ([3]; drug 100 nM, −Betalutin, Dy3): 100%; viability at 0.1 µM ([3]; drug 100 nM, −Betalutin, Dy4): 89%; viability at 0.1 µM ([3]; drug 100 nM, −Betalutin, Dy5): 94%; viability at 0.1 µM ([3]; drug 100 nM, −Betalutin, Dy6): 94%; viability at 1 µM ([3]; drug 1 μM, +Betalutin, Dy3): 2%; viability at 1 µM ([3]; drug 1 μM, +Betalutin, Dy4): 1%; viability at 1 µM ([3]; drug 1 μM, +Betalutin, Dy5): 1%; viability at 1 µM ([3]; drug 1 μM, +Betalutin, Dy6): 1%; viability at 1 µM ([3]; drug 1 μM, −Betalutin, Dy3): 8%; viability at 1 µM ([3]; drug 1 μM, −Betalutin, Dy4): 4%; viability at 1 µM ([3]; drug 1 μM, −Betalutin, Dy5): 2%; viability at 1 µM ([3]; drug 1 μM, −Betalutin, Dy6): 1%
CC1(C)CCC(CN2CCN(c3ccc(C(=O)NS(=O)(=O)c4ccc(NCC5CCOCC5)c([N+](=O)[O-])c4)c(Oc4cnc5[nH]ccc5c4)c3)CC2)=C(c2ccc(Cl)cc2)C1 [venetoclax] |  |  |  |  |  |  |  |  |  |  |  |  |  |  |  |  |  |  |  |  | IC50 [4]: 0.331 µM; IC50 [5]: 2.98 µM
